Among the data in US20100056596A1, “RESISTANCE-REPELLENT RETROVIRAL PROTEASE INHIBITORS” (Sequoia Pharmaceuticals, priority 2004, published 2010) are Ki and IC50 values, retold here.

Where two headings read alike, the source gives them in different places. A value given as a limit tells only on which side of the number the result lay.

The Ki is a measure of affinity in units of concentration, obtained from inhibition or displacement. A lower Ki goes with higher affinity. Broadly, the IC50 is the midpoint of a concentration-inhibition curve.

In one assay the target is HIV-1 protease Mutant 8 (Human immunodeficiency virus type 1, UniProt P04585). Briefly: Ki against HIV-1 protease Mutant 8. The class given is biochemical.
The next assay concerns HIV-1 isolates, WT. Put plainly: In vitro drug sensitivity of HIV-1 laboratory isolates, WT. The class given is cell-based. The protocol:
(§1) In Vitro Drug Sensitivity of HIV-1 Laboratory Isolates to PIs
(§2) The sensitivities of HIV-1 isolates against compounds of the invention were determined as previously described with minor modifications (Shiraska et al., Proc. Natl. Acad. Sci. USA, 92, 2398-2402 (1995)).

For another assay, the system named is HIV-1 isolates, Mutant 9. Briefly: In vitro drug sensitivity of HIV-1 laboratory isolates, Mutant 9. The class given is cell-based. How it is done: as §1, §2
The target of another assay is T1, wild type HIV-1 protease (Human immunodeficiency virus type 1 group M subtype B, UniProt P04585).
T1 construct: over 45 of the 99 amino acids of the HIV protease monomer
Briefly: Ki against wild type (WT) HIV-1 protease. The class given is biochemical.

In the next assay the test system is HIV-1 isolates, Mutant 8. Briefly: In vitro drug sensitivity of HIV-1 laboratory isolates, Mutant 8. The class given is cell-based. How it is done:
as §1, §2

A further assay has as its target HIV-1 protease Mutant 9 (Human immunodeficiency virus type 1, UniProt P04585). Put plainly: Ki against HIV-1 protease Mutant 9. The class given is biochemical.
Where [1] appears, read: Mutant 9, read-out: IC50 Mutant 9.
[2] abbreviates: Mutant 8, read-out: IC50 Mutant 8.
Where [3] appears, read: Human immunodeficiency virus 1, HIV-1 isolate WT.
Setting [4] is: Human immunodeficiency virus 1, read-out: IC50 Mutant 9.
The mark [5] stands for this setting: Human immunodeficiency virus 1, read-out: IC50 Mutant 8.

With `CC(C)CN(C[C@@H](O)[C@H](Cc1ccccc1)NC(=O)OC1COC2OCCC12)S(=O)(=O)c1ccc2occ(CNC(=O)CSCc3ccccc3)c2c1` (stereo partly drawn) [Compound 119], the Ki on HIV-1 protease Mutant 8 (Mutant 8) was below 0.3 nM; on wild type HIV-1 protease (WT) it was 0.12 nM; on HIV-1 protease Mutant 9 (Mutant 9) it was 0.95 nM. The IC50 in the assay with HIV-1 isolates, WT (WT) was found to be 5 nM; in the assay with HIV-1 isolates, Mutant 9 (setting [1]), 170 nM; in the assay with HIV-1 isolates, Mutant 8 (setting [2]) it was 42 nM.

`CC(=O)NCc1coc2ccc(S(=O)(=O)N(CC(C)C)C[C@@H](O)[C@H](Cc3ccccc3)NC(=O)OC3COC4OCCC34)cc12` (stereo partly drawn) [Compound 107]: the Ki on HIV-1 protease Mutant 8 (Mutant 8) is below 0.3 nM; on wild type HIV-1 protease (WT), below 0.1 nM; on HIV-1 protease Mutant 9 (Mutant 9), 0.26 nM. Besides, the IC50 is 15 nM in the assay on HIV-1 isolates, WT (WT); 42 nM with HIV-1 isolates, Mutant 9 (setting [1]); 28 nM with HIV-1 isolates, Mutant 8 (setting [2]).

With `CCOC(=O)N(CCOC)Cc1noc2ccc(S(=O)(=O)N(CC(C)C)CC(O)C(Cc3ccccc3)NC(=O)OC3COC4OCCC34)cc12` (stereo not drawn) [Compound 225], the Ki was below 0.3 nM at HIV-1 protease Mutant 8 (HIV-1 protease Mutant 8), below 0.1 nM on wild type HIV-1 protease (wild type HIV-1 protease) and 0.44 nM on HIV-1 protease Mutant 9 (HIV-1 protease Mutant 9). The IC50 amounted to 3.6 nM in the assay with HIV-1 isolates, WT (setting [3]); 80 nM in the assay on HIV-1 isolates, Mutant 9 (setting [4]); 27 nM with HIV-1 isolates, Mutant 8 (setting [5]).

Turning to `CCCC(C)Nc1n[nH]c2ccc(S(=O)(=O)N(CC(C)C)CC(O)C(Cc3ccccc3)NC(=O)OC3COC4OCCC34)cc12` (stereo not drawn) [Compound 303], the results for the Ki on HIV-1 protease Mutant 8 (Mutant 8), on wild type HIV-1 protease (WT) and on HIV-1 protease Mutant 9 (Mutant 9) were below 0.3 nM, below 0.1 nM and 0.73 nM, respectively. For the same molecule, the IC50 was 10 nM with HIV-1 isolates, WT (Human immunodeficiency virus 1); 150 nM with HIV-1 isolates, Mutant 9 (setting [4]); 18 nM in the assay on HIV-1 isolates, Mutant 8 (setting [5]).

As for `CC(C)CN(C[C@@H](O)[C@H](Cc1ccccc1)NC(=O)OC1COC2OCCC12)S(=O)(=O)c1ccc2occ(CN3CCOCC3)c2c1` (stereo partly drawn) [Compound 108], the Ki was below 0.3 nM on HIV-1 protease Mutant 8 (Mutant 8), below 0.1 nM on wild type HIV-1 protease (WT) and 1.5 nM on HIV-1 protease Mutant 9 (Mutant 9). Besides, the IC50 in the assay with HIV-1 isolates, WT (WT) came to 1.5 nM; in the assay with HIV-1 isolates, Mutant 9 (setting [1]), 420 nM; in the assay with HIV-1 isolates, Mutant 8 (setting [2]) it was 38 nM.

As to `CCCC[S+]([O-])Cc1coc2ccc(S(=O)(=O)N(CC(C)C)C[C@@H](O)[C@H](Cc3ccccc3)NC(=O)OC3COC4OCCC34)cc12` (stereo partly drawn) [Compound 111], the Ki was below 0.3 nM at HIV-1 protease Mutant 8 (Mutant 8), below 0.1 nM on wild type HIV-1 protease (WT) and 0.16 nM at HIV-1 protease Mutant 9 (Mutant 9). In addition, the IC50 was found to be 8 nM in the assay on HIV-1 isolates, WT (Human immunodeficiency virus 1); 49 nM in the assay with HIV-1 isolates, Mutant 9 (setting [4]); 24 nM with HIV-1 isolates, Mutant 8 (setting [5]).

On to `CC(C)CN(CC(O)C(Cc1ccccc1)NC(=O)OC1COC2OCCC12)S(=O)(=O)c1ccc2onc(CO)c2c1` (stereo not drawn) [Compound 213], for which the values for the Ki at HIV-1 protease Mutant 8 (HIV-1 protease Mutant 8), at wild type HIV-1 protease (wild type HIV-1 protease) and on HIV-1 protease Mutant 9 (HIV-1 protease Mutant 9) were below 0.3 nM, below 0.1 nM and 0.15 nM, respectively. The IC50 is 7 nM with HIV-1 isolates, WT (setting [3]); 55 nM with HIV-1 isolates, Mutant 9 (setting [4]); 30 nM in the assay on HIV-1 isolates, Mutant 8 (setting [5]).

As to `CCOC(=O)CNc1n[nH]c2ccc(S(=O)(=O)N(CC(C)C)CC(O)C(Cc3ccccc3)NC(=O)OC3COC4OCCC34)cc12` (stereo not drawn) [Compound 310], the Ki at HIV-1 protease Mutant 8 (Mutant 8) was below 0.3 nM; at wild type HIV-1 protease (WT) it was below 0.1 nM; on HIV-1 protease Mutant 9 (Mutant 9), 0.19 nM. Moreover, the IC50 with HIV-1 isolates, WT (Human immunodeficiency virus 1) is 50 nM; in the assay with HIV-1 isolates, Mutant 9 (setting [4]), 60 nM; in the assay on HIV-1 isolates, Mutant 8 (setting [5]), 70 nM.

For `CC(C)CN(CC(O)C(Cc1ccccc1)NC(=O)OC1COC2OCCC12)S(=O)(=O)c1ccc2[nH]nc(NCC(C)(C)C)c2c1` (stereo not drawn) [Compound 309], the Ki is below 0.3 nM at HIV-1 protease Mutant 8 (Mutant 8), 0.13 nM at wild type HIV-1 protease (WT) and 3.5 nM on HIV-1 protease Mutant 9 (Mutant 9). Moreover, the IC50 amounted to 4 nM in the assay on HIV-1 isolates, WT (Human immunodeficiency virus 1); 250 nM in the assay on HIV-1 isolates, Mutant 9 (setting [4]); 25 nM with HIV-1 isolates, Mutant 8 (setting [5]).

For `CC(C)CN(CC(O)C(Cc1ccccc1)NC(=O)OC1COC2OCCC12)S(=O)(=O)c1ccc2onc(CNCc3ccccn3)c2c1` (stereo not drawn) [Compound 241], the results for the Ki on HIV-1 protease Mutant 8 (HIV-1 protease Mutant 8), at wild type HIV-1 protease (wild type HIV-1 protease) and at HIV-1 protease Mutant 9 (HIV-1 protease Mutant 9) were below 0.3 nM, 0.1 nM and 0.16 nM, respectively. Besides, the IC50 in the assay on HIV-1 isolates, WT (setting [3]) came to 8 nM; in the assay with HIV-1 isolates, Mutant 9 (setting [4]) it was 27 nM; with HIV-1 isolates, Mutant 8 (setting [5]), 17 nM.

Regarding `CC(=O)N(Cc1noc2ccc(S(=O)(=O)N(CC(C)C)CC(O)C(Cc3ccccc3)NC(=O)OC3COC4OCCC34)cc12)CC(F)(F)F` (stereo not drawn) [Compound 247], the Ki is below 0.3 nM at HIV-1 protease Mutant 8 (HIV-1 protease Mutant 8), below 0.1 nM on wild type HIV-1 protease (wild type HIV-1 protease) and 1.1 nM on HIV-1 protease Mutant 9 (HIV-1 protease Mutant 9). Also, the IC50 in the assay with HIV-1 isolates, WT (setting [3]) is 5.4 nM; with HIV-1 isolates, Mutant 9 (setting [4]) it was above 400 nM; in the assay with HIV-1 isolates, Mutant 8 (setting [5]) it was 29 nM.
